From patent US11690860B2, “Treatment of HCV infected patients with cirrhosis” (Atea Pharmaceuticals, Inc., priority 2018, dated 2023)
“Also recorded” adds a separate entry of the source. Like-named read-outs stand apart in the source and are kept apart here.

Assay: Plasma pharmacokinetics of Compound 1 and metabolite 1-7 (LC-MS/MS) in Parts C, D and E
Format: in vivo, human
Protocol: Doses were administered as the Compound 2 salt base. The free base Compound 1 equivalent is often given in parenthesis.
Part C was a randomized, double-blind, placebo-controlled MAD study divided into three cohorts. […] The dose escalation only proceeded following satisfactory review of the data.
HCV-infected patients were treatment-naïve with HCV RNA ≥5 log 10 IU/mL. HCV RNA was quantified using COBAS® AmpliPrep TaqMAN® v2.0 with LLQ of 15 IU/mL. Plasma drug levels were measured using LC-MS/MS. […] Cirrhosis was confirmed by prior liver biopsy or Fibroscan >12.5 kPa. […] Mean ages of enrolled subjects were 44, 39, and 56 years in the non-cirrhotic GT1b 600 mg dose cohort, non-cirrhotic GT3 cohort, and the cirrhotic cohort, respectively.
Plasma levels of metabolite 1-7 were measured using LC-MS/MS.

[1] = Part C, 150 to 600 mg Compound 2

## C[C@@]1(F)[C@H](O)[C@@H](CO)O[C@H]1n1cnc2c(=O)[nH]c(N)nc21 [Metabolite 1-7, 2-amino-9-((2R,3R,4R,5R)-3-fluoro-4-hydroxy-5-(hydroxymethyl)-3-methyltetrahydrofuran-2-yl)-1,9-dihydro-6H-purin-6-one]
600 mg QD of Compound 2, Parts C/D vs Part E
  PK in cirrhotic compared with non-cirrhotic subjects: similar; also recorded: comparable
NC subjects, based on metabolite 1-7 trough levels
  time at which steady state was reached: after the third or fourth dose; also recorded: day 3 or 4
Part C
  higher trough upon reaching steady state: 50%-60%
  time of peak formation after dosing: approximately 6 hours
[1]
  dose proportionality of plasma exposure (peak and total): dose proportional from 150 to 300 mg and less than dose proportional from 300 mg to 600 mg
  dose proportionality of trough levels: mostly dose proportional
Part C, NC GT1b, 150 mg/d Compound 2 QD, n=6
  AUC Day 1 (AUC, for Metabolite 1-7): 800 ± 213 ng/mLxh
Part C, NC GT1b, 300 mg/d Compound 2 QD, n=6
  AUC Day 1 (AUC, for Metabolite 1-7): 1414 ± 220 ng/mLxh
Part C, NC GT1b, 600 mg/d Compound 2 QD, n=6
  AUC Day 1 (AUC, for Metabolite 1-7): 2204 ± 486 ng/mLxh
Part C, NC GT1b, 600 mg/d Compound 2 QD, n=6, trough after the first dose
  C24 h Day 1: 27.5 ± 5.21 ng/mL
Part D, NC GT3, 600 mg/d Compound 2 QD, n=6
  AUC Day 1 (AUC, for Metabolite 1-7): 2253 ± 595 ng/mLxh
Part D, NC GT3, 600 mg/d Compound 2 QD, n=6, trough after the first dose
  C24 h Day 1: 30.1 ± 10.9 ng/mL
Part E, Child-Pugh A cirrhotic, 600 mg/d Compound 2 QD, n=6
  AUC Day 1 (AUC, for Metabolite 1-7): 2625 ± 873 ng/mLxh
Part E, Child-Pugh A cirrhotic, 600 mg/d Compound 2 QD, n=6, trough after the first dose
  C24 h Day 1: 41.6 ± 12.9 ng/mL
Cirrhotic patients, 600 mg of Compound 2
  steady state plasma trough level: 45.7 ng/mL
human, plasma, 150 mg, AUC of metabolite 1-7, range for the dose, 150 mg Compound 2 QD 7 days (FIG. 7)
  AUC: 397 to 1430 ng·h/mL
human, plasma, 300 mg, AUC of metabolite 1-7, range for the dose, 300 mg Compound 2 QD 7 days (FIG. 7)
  AUC: 1300 to 2580 ng·h/mL
human, plasma, 600 mg, AUC of metabolite 1-7, range for the dose, 600 mg Compound 2 QD 7 days (FIG. 7)
  AUC: 2250 to 5380 ng·h/mL
human, plasma, 600 mg, metabolite 1-7 exposure (AUC) achieved, 600 mg Compound 2 QD, all subjects, cirrhotic or non-cirrhotic
  AUC: > 2000 ng·h/mL
human, plasma, oral, 150 mg/d, Part C, NC GT1b, 150 mg/d Compound 2 QD, n=6, read-out: C24 h Day 1
  concentration at 24 h: 8.08 ± 3.48 ng/mL
human, plasma, oral, 150 mg/d, Part C, NC GT1b, 150 mg/d Compound 2 QD, n=6, read-out: Cmax Day 1
  Cmax: 75.6 ± 15.4 ng/mL
human, plasma, oral, 150 mg/d, steady state = mean of C24 at 72, 96, 120, 144 and 168 h, Part C, NC GT1b, 150 mg/d Compound 2 QD, n=6, read-out: C24 h SS
  concentration at 24 h: 12.8 ± 4.45 ng/mL
human, plasma, oral, 150 mg/d, steady state, Part C, NC GT1b, 150 mg/d Compound 2 QD, n=6, read-out: Cmax SS
  Cmax: 81.1 ± 33.9 ng/mL
human, plasma, oral, 150 mg/d, steady state, Part C, NC GT1b, 150 mg/d Compound 2 QD, n=6, read-out: T1/2 SS (converted)
  half-life: 750 min
human, plasma, oral, 300 mg/d, Part C, NC GT1b, 300 mg/d Compound 2 QD, n=6, read-out: Cmax Day 1
  Cmax: 123 ± 16.6 ng/mL
human, plasma, oral, 300 mg/d, steady state = mean of C24 at 72, 96, 120, 144 and 168 h, Part C, NC GT1b, 300 mg/d Compound 2 QD, n=6, read-out: C24 h SS
  concentration at 24 h: 26.1 ± 7.56 ng/mL
human, plasma, oral, 300 mg/d, steady state, Part C, NC GT1b, 300 mg/d Compound 2 QD, n=6, read-out: Cmax SS
  Cmax: 220 ± 203 ng/mL
human, plasma, oral, 300 mg/d, steady state, Part C, NC GT1b, 300 mg/d Compound 2 QD, n=6, read-out: T1/2 SS (converted)
  half-life: 1470 min
human, plasma, oral, 600 mg/d, Part C, NC GT1b, 600 mg/d Compound 2 QD, n=6, read-out: Cmax Day 1
  Cmax: 197 ± 57.1 ng/mL
human, plasma, oral, 600 mg/d, Part C, NC GT1b, 600 mg/d Compound 2 QD, n=6, trough after the first dose, read-out: C24 h Day 1
  concentration at 24 h: 27.5 ng/mL
human, plasma, oral, 600 mg/d, Part D, NC GT3, 600 mg/d Compound 2 QD, n=6, read-out: Cmax Day 1
  Cmax: 195 ± 42.9 ng/mL
human, plasma, oral, 600 mg/d, Part D, NC GT3, 600 mg/d Compound 2 QD, n=6, trough after the first dose, read-out: C24 h Day 1
  concentration at 24 h: 30.1 ng/mL
human, plasma, oral, 600 mg/d, Part E, Child-Pugh A cirrhotic, 600 mg/d Compound 2 QD, n=6, read-out: Cmax Day 1
  Cmax: 201 ± 68.1 ng/mL
human, plasma, oral, 600 mg/d, Part E, Child-Pugh A cirrhotic, 600 mg/d Compound 2 QD, n=6, trough after the first dose, read-out: C24 h Day 1
  concentration at 24 h: 41.6 ng/mL
human, plasma, oral, 600 mg/d, steady state = mean of C24 at 72, 96, 120, 144 and 168 h, Part C, NC GT1b, 600 mg/d Compound 2 QD, n=6, read-out: C24 h SS
  concentration at 24 h: 46.9 ± 15.5 ng/mL
human, plasma, oral, 600 mg/d, steady state = mean of C24 at 72, 96, 120, 144 and 168 h, Part D, NC GT3, 600 mg/d Compound 2 QD, n=6, read-out: C24 h SS
  concentration at 24 h: 37.8 ± 11.4 ng/mL
human, plasma, oral, 600 mg/d, steady state = mean of C24 at 72, 96, 120, 144 and 168 h, Part E, Child-Pugh A cirrhotic, 600 mg/d Compound 2 QD, n=6, read-out: C24 h SS
  concentration at 24 h: 69.9 ± 18.5 ng/mL
human, plasma, oral, 600 mg/d, steady state, Part C, NC GT1b, 600 mg/d Compound 2 QD, n=6, read-out: Cmax SS
  Cmax: 233 ± 42.9 ng/mL
human, plasma, oral, 600 mg/d, steady state, Part C, NC GT1b, 600 mg/d Compound 2 QD, n=6, read-out: T1/2 SS (converted)
  half-life: 1730 min
human, plasma, oral, 600 mg/d, steady state, Part D, NC GT3, 600 mg/d Compound 2 QD, n=6, read-out: Cmax SS
  Cmax: 263 ± 104 ng/mL
human, plasma, oral, 600 mg/d, steady state, Part D, NC GT3, 600 mg/d Compound 2 QD, n=6, read-out: T1/2 SS (converted)
  half-life: 1670 min
human, plasma, oral, 600 mg/d, steady state, Part E, Child-Pugh A cirrhotic, 600 mg/d Compound 2 QD, n=6, read-out: T1/2 SS (converted)
  half-life: 1460 min
human, plasma, oral, 600 mg/d, steady state, Part E, Child-Pugh A cirrhotic, 600 mg/d Compound 2 QD, n=6, read-out: Tmax SS
  Tmax: 6 h
human, plasma, oral, Part C, read-out: half-life
  half-life: 780 to 1800 min
In vivo
  food effect on total and trough exposure: No food effect
Steady state, Part C, NC GT1b, 150 mg/d Compound 2 QD, n=6
  AUC SS (AUC, for Metabolite 1-7): 962 ± 409 ng/mLxh
Steady state, Part C, NC GT1b, 300 mg/d Compound 2 QD, n=6
  AUC SS (AUC, for Metabolite 1-7): 1828 ± 453 ng/mLxh
Steady state, Part C, NC GT1b, 600 mg/d Compound 2 QD, n=6
  AUC SS (AUC, for Metabolite 1-7): 2839 ± 572 ng/mLxh
Steady state, Part D, NC GT3, 600 mg/d Compound 2 QD, n=6
  AUC SS (AUC, for Metabolite 1-7): 3117 ± 1048 ng/mLxh
Steady state, Part E, Child-Pugh A cirrhotic, 600 mg/d Compound 2 QD, n=6
  AUC SS (AUC, for Metabolite 1-7): 3569 ± 1214 ng/mLxh
Subjects with cirrhosis
  time at which steady state was reached: day 5; also recorded: after the fifth dose
